{"source": "paper PMC3553658", "about": "(Combinatorial chemistry & high throughput screening, 2012)", "assay_type_in_all_cases": "biochemical", "key": {"EuHMTase1": {"biological_target": "T1, EuHMTase1 (Homo sapiens, UniProt Q9H9B1)", "T1 sequence (Q9H9B1 982-1266)": "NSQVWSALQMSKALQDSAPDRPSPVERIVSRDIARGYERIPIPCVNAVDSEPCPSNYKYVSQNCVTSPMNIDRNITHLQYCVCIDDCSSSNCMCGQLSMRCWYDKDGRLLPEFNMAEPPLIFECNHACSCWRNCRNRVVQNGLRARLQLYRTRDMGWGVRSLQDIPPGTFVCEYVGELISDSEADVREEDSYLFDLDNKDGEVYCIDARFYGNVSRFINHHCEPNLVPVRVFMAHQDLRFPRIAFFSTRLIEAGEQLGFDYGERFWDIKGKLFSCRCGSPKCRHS", "experiment": "Filter-paper assay dose response, EuHMTase1", "details": "up to 100 μM"}, "SET8 [1]": {"biological_target": "T2, SET8 (Homo sapiens, UniProt Q9NQR1)", "T2 sequence (Q9NQR1 191-352 isoform Q9NQR1-2)": "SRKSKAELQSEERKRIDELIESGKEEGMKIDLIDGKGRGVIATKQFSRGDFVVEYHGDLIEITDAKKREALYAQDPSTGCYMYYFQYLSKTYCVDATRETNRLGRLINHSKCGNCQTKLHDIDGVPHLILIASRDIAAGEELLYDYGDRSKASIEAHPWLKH", "experiment": "Filter-paper assay dose response, SET8", "details": "up to 100 μM"}, "SETD2 [2]": {"biological_target": "T3, SETD2 (Homo sapiens, UniProt Q9BYW2)", "T3 sequence (Q9BYW2 1347-1711)": "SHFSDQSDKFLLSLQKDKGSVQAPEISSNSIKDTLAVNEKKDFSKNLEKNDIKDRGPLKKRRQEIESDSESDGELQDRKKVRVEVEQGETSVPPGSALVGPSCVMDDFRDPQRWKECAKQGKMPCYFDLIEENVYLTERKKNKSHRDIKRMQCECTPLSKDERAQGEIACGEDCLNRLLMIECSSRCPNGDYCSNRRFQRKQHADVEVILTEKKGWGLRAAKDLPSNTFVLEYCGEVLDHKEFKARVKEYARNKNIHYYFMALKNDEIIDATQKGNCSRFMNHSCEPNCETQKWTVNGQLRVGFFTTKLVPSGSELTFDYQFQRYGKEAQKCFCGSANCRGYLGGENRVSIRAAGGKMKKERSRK", "experiment": "SPIA-bead assay", "details": "SPIA primary screen, 10 μM compound, duplicate"}, "SET7/9 [3]": {"biological_target": "T4, SET7/9 (Homo sapiens, UniProt Q8WTS6)", "T4 sequence (Q8WTS6 1-366)": "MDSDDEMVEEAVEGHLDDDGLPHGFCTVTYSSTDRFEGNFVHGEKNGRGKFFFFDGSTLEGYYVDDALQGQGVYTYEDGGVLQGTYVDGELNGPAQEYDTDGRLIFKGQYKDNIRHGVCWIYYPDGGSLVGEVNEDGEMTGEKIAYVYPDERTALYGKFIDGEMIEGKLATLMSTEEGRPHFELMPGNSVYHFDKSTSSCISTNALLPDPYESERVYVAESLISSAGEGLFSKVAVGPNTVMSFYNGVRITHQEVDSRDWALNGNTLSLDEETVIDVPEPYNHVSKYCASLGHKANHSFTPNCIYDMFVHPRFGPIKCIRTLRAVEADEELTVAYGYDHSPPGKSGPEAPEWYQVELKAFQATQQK", "experiment": "Filter-paper assay dose response, SET7/9", "details": "up to 100 μM"}, "SET8 [4]": {"biological_target": "T2, SET8", "experiment": "SPIA-bead assay", "details": "read-out: SET8 [% IHBN], SPIA primary screen, 10 μM compound, duplicate"}, "SETD2 [5]": {"biological_target": "T3, SETD2", "experiment": "Filter-paper assay dose response, SETD2", "details": "up to 100 μM"}, "SET7/9 [6]": {"biological_target": "T4, SET7/9", "experiment": "SPIA-bead assay", "details": "SPIA primary screen, 10 μM compound, duplicate"}}, "note": "Entries after “also recorded” stand apart in the source; their conditions may differ."}
{"smiles": "O=C(O)CCCC[C@@H]1SC[C@@H]2NC(=O)N[C@@H]21", "note": "[Biotin]", "values": [{"measurement": "Inhibition of EuHMTase1 in filter-paper assay", "setting": "EuHMTase1", "value": "no inhibition; also recorded: did not find inhibition"}, {"measurement": "Inhibition of SET8 in filter-paper assay", "setting": "SET8 [1]", "value": "no inhibition; also recorded: did not find inhibition"}, {"measurement": "SETD2 [% IHBN]", "setting": "SETD2 [2]", "value": "60–90%"}, {"measurement": "Inhibition of SET7/9 in filter-paper assay", "setting": "SET7/9 [3]", "value": "no inhibition; also recorded: did not find inhibition"}, {"measurement": "inhibition at 10 µM", "setting": "SET8 [4]", "value": "60 to 90", "unit": "%"}, {"measurement": "Inhibition of SETD2 in filter-paper assay", "setting": "SETD2 [5]", "value": "no inhibition; also recorded: did not find inhibition"}]}
{"smiles": "O=C(Nc1ccc(C(=O)Nc2ccc(C(=O)Nc3ccc(S(=O)(=O)[O-])c4cc(S(=O)(=O)[O-])cc(S(=O)(=O)[O-])c34)cc2)cc1)Nc1ccc(C(=O)Nc2ccc(C(=O)Nc3ccc(S(=O)(=O)[O-])c4cc(S(=O)(=O)[O-])cc(S(=O)(=O)[O-])c34)cc2)cc1.[Na+].[Na+].[Na+].[Na+].[Na+].[Na+]", "note": "[NF 279, 8,8′-[Carbonylbis(imino-4,1-phenylenecarbonylimino-4,1-phenylenecarbonylimino)]bis-1,3,5-naphtlenetrisulfonic acid hexasodium salt]", "values": [{"measurement": "SET7/9 [% IHBN]", "setting": "SET7/9 [6]", "value": 83, "unit": "%"}]}
